This note sets out measurements from patent publication US20090317376A1, “Compositions And Methods For Lipo Modeling” (Georgetown University MEDICAL SCHOOL, priority 2005, published 2009).

The subject of this assay is 3T3-L1 preadipocytes. As to the kind of experiment: Preadipocyte proliferation (mitogenic assay). The assay is classed as cell-based, murine. From the text: To mimic stress-released NPY in vitro, conditioned media from, or coculture with, neuroblastoma SKNBE cells (a model of sympathetic neurons which release 0.1 pM NPY) is used to treat endothelial cells and 3T3-L1 preadipocytes. Both cell lines express all NPYRs but lack NPY (confirmed by RT-PCR and IHC, FIG. […] 6). […] When 3T3-L1 preadipocytes are cocultured with HMVEC, there is no significant mitogenic response between treated and untreated cells.
Co-culture: For mitogenic assay and expression studies, co-culture is performed in a Costar Transwell system. Cells are plated on the 6-well plates and the inserts with 0.4 μm Polyester membranes. After they reach 30% confluence, the inserts are placed into plates with other cells. Co-culture of neuroblastomas/SCG neurons with aECs are carried out in EC media and with preadipocytes—in preadipocyte growth media. […] After 48 h, the cells are counted with a coulter counter. […]
Mitogenic assays: 3T3-L1 pre-adipocytes are allowed to grow to 30% confluency before serum-starving the cells. […] Proliferation is determined by cell counting using a coulter counter (Beckman Coulter, Miami, Fla.). […] After 24 h, cells are harvested in a 96-well harvester (Tomtec) and counted in a Betaplate Liquid Scintillation Counter (Wallac).
1. […] After 24 h, cells were harvested in a 96-well harvester (Tomtec) and counted in a Betaplate Liquid Scintillation Counter (Wallac). […]

`N=C(N)NCCC[C@H](NC(=O)CC1(CC(=O)N2CCN(C3c4ccccc4NC(=O)c4ccccc43)CC2)CCCC1)C(=O)NCCn1c(=O)n(-c2ccccc2)n(-c2ccccc2)c1=O` (some centres unmarked) [BIIE0246]: the “block of NPY- and neuroblastoma-conditioned media-stimulated preadipocyte proliferation” value (BIIE0246 1 μM) was “blocked”.
Consider neuropeptide Y [NPY], for which the preadipocyte proliferation result (NPY treatment of 3T3-L1 preadipocytes) is listed as “stimulated”.
